According to patent US10681909B2, “Herbicidal triazoles” (FMC Corporation, priority 2014, dated 2020):

Experiments:
lambsquarters = assay: Test C preemergence; assay type: in vivo, Chenopodium album; details: for Plant response rating (scale of 0 to 100 where 0 is no effect and 100 is complete control): Lambsquarters, preemergence; for Lambsquarters plant response rating (0 to 100): Preemergence, visual rating after 13 to 15 d
Source text: (§1) Seeds of plant species selected from blackgrass (Alopecurus myosuroides), ryegrass, Italian (Italian ryegrass, Lolium multiflorum), wheat (winter wheat, Triticum aestivum), galium (catchweed bedstraw, Galium aparine), corn (Zea mays), crabgrass, large (large crabgrass, Digitaria sanguinalis), foxtail, giant, (giant foxtail, Setaria faberii), johnsongrass (Sorghum halepense), lambsquarters (Chenopodium album), morningglory (Ipomoea coccinea), nutsedge, yellow (yellow nutsedge, Cyperus esculentus), pigweed (Amaranthus retroflexus), ragweed (common ragweed, Ambrosia elatior), soybean (Glycine max), barnyardgrass (Echinochloa crus-galli), oilseed rape (Brassica napus), waterhemp (common waterhemp, Amaranthus rudis), and velvetleaf (Abutilon theophrasti) were planted into a blend of loam soil and sand and treated preemergence with test chemicals formulated in a non-phytotoxic solvent mixture which included a surfactant. At the same time, plants selected from these crop and weed species and also chickweed (common chickweed, Stellaria media), oat, wild (wild oat, Avena fatua), and kochia (Kochia scoparia), were planted in pots containing Sunshine Redi-Earth® planting medium comprising spaghnum peat moss, vermiculite, starter nutrients and dolomitic limestone and treated with postemergence applications of test chemicals formulated in the same manner. Plants ranged in height from 2 to 18 cm (1- to 4-leaf stage) for postemergence treatments. […] A dash (-) response means no test result.

ryegrass, Ital. = assay: Test D preemergence; assay type: in vivo, Lolium multiflorum; details: for Plant response rating (0 to 100), Ryegrass, Ital.: 16 g ai/ha, 0 is no effect, 100 is complete control; for Plant response rating: Ryegrass, Ital.: scale 0 to 100
Source text: (§2) Seeds of plant species selected from bluegrass (annual bluegrass, Poa annua), blackgrass (Alopecurus myosuroides), canarygrass (Phalaris minor), chickweed (common chickweed, Stellaria media), galium (catchweed bedstraw, Galium aparine), bromegrass, down (downy bromegrass, Bromus tectorum), Russian thistle (Salsola kali), field poppy (Papaver rhoeas), field violet (Viola arvensis), foxtail, green (green foxtail, Setaria viridis), deadnettle (henbit deadnettle, Lamium amplexicaule), ryegrass, Ital. (Italian ryegrass, Lolium multiflorum), kochia (Kochia scoparia), lambsquarters (Chenopodium album), oilseed rape (Brassica napus), pigweed (Amaranthus retroflexus), chamomile (scentless chamomile, Matricaria inodora), speedwell (bird's-eye speedwell, Veronica persica), barley, spring (spring barley, Hordeum vulgare), wheat, spring (spring wheat, Triticum aestivum), buckwheat, wild (wild buckwheat, Polygonum convolvulus), wild mustard (Sinapis arvensis), oat, wild (wild oat, Avena fatua), radish, wild (wild radish, Raphanus raphanistrum), […]), barley, winter (winter barley, Hordeum vulgare), and wheat, winter (winter wheat, Triticum aestivum) were planted into a silt loam soil and treated preemergence with test chemicals formulated in a non-phytotoxic solvent mixture which included a surfactant. At the same time, these species were planted in pots containing Sunshine Redi-Earth® planting medium comprising spaghnum peat moss, vermiculite, starter nutrients and dolomitic limestone and treated with postemergence applications of the test chemicals formulated in the same manner. Plants ranged in height from 2 to 18 cm (1- to 4-leaf stage). Treated plants and controls were maintained in a controlled growth environment for 14 to 21 d after which time all species were compared to controls and visually evaluated. […] A dash (-) response means no test result.

field violet = assay: Test D preemergence; assay type: in vivo, Viola arvensis; details: for Plant response rating (0 to 100), Field Violet: 16 g ai/ha, 0 is no effect, 100 is complete control; for Plant response rating: Field Violet: scale 0 to 100
Source text: as §2

ryegrass, Italian = assay: Test C preemergence; assay type: in vivo, Lolium multiflorum; details: for Ryegrass, Italian plant response rating (0 to 100): Preemergence, visual rating after 13 to 15 d; for Plant response rating (scale of 0 to 100 where 0 is no effect and 100 is complete control): Ryegrass, Italian, preemergence
Source text: as §1

ragweed = assay: Test C preemergence; assay type: in vivo, Ambrosia elatior; details: for Ragweed plant response rating (0 to 100): Preemergence, visual rating after 13 to 15 d; for Plant response rating (scale of 0 to 100 where 0 is no effect and 100 is complete control): Ragweed, preemergence
Source text: as §1

Russian thistle = assay: Test D postemergence; assay type: in vivo, Salsola kali; details: scale 0 to 100
Source text: as §2

canarygrass = assay: Test D postemergence; assay type: in vivo, Phalaris minor; details: scale 0 to 100
Source text: as §2

SMILES	Plant response rating (scale of 0 to 100 where 0 is no effect and 100 is complete control) (lambsquarters; 125 g ai/ha)	Plant response rating (scale of 0 to 100 where 0 is no effect and 100 is complete control) (lambsquarters; 250 g ai/ha)	Lambsquarters plant response rating (0 to 100) (lambsquarters; 31 g ai/ha)	Lambsquarters plant response rating (0 to 100) (lambsquarters; 62 g ai/ha)	Plant response rating (0 to 100), Ryegrass, Ital. (ryegrass, Ital.)	Plant response rating: Ryegrass, Ital. (ryegrass, Ital.; 62 g ai/ha)	Plant response rating: Ryegrass, Ital. (ryegrass, Ital.; 125 g ai/ha)	Plant response rating (0 to 100), Field Violet (field violet)	Plant response rating: Field Violet (field violet; 62 g ai/ha)	Plant response rating: Field Violet (field violet; 125 g ai/ha)	Ryegrass, Italian plant response rating (0 to 100) (ryegrass, Italian; 31 g ai/ha)	Ryegrass, Italian plant response rating (0 to 100) (ryegrass, Italian; 62 g ai/ha)	Plant response rating (scale of 0 to 100 where 0 is no effect and 100 is complete control) (ryegrass, Italian; 125 g ai/ha)	Plant response rating (scale of 0 to 100 where 0 is no effect and 100 is complete control) (ryegrass, Italian; 250 g ai/ha)	Ragweed plant response rating (0 to 100) (ragweed; 31 g ai/ha)	Ragweed plant response rating (0 to 100) (ragweed; 62 g ai/ha)	Plant response rating (scale of 0 to 100 where 0 is no effect and 100 is complete control) (ragweed; 125 g ai/ha)	Plant response rating (scale of 0 to 100 where 0 is no effect and 100 is complete control) (ragweed; 250 g ai/ha)	Plant response rating: Russian Thistle (Russian thistle; 16 g ai/ha)	Plant response rating: Russian Thistle (Russian thistle; 31 g ai/ha)	other results
FC(F)(F)COc1nc(-c2ccc(Cl)cc2)nn1Cc1ccnc(C(F)(F)F)c1 [Compound 31]	100	98	90	100	40	50	100	95	100	100	50	60	90	90	45	50	65	75	70	80	Plant response rating: Russian Thistle (Russian thistle; 62 g ai/ha): 85; Plant response rating: Russian Thistle (Russian thistle; 125 g ai/ha): 90; Plant response rating: Canarygrass (canarygrass; 16 g ai/ha): 65; Plant response rating: Canarygrass (canarygrass; 31 g ai/ha): 75; Plant response rating: Canarygrass (canarygrass; 62 g ai/ha): 80; Plant response rating: Canarygrass (canarygrass; 125 g ai/ha): 80
CCOc1nc(-c2ccc(C(F)(F)F)cc2)nn1Cc1ccnc(C(F)(F)F)c1 [Compound 35, 4-[[5-ethoxy-3-[4-(trifluoromethyl)phenyl]-1H-1,2,4-triazole-1-yl]methyl]-2-(trifluoromethyl)pyridine]	100	98	98	98	35	65	70	95	100	100	70	85	90	90	60	75	85	90	70	75	Plant response rating: Russian Thistle (Russian thistle; 62 g ai/ha): 80; Plant response rating: Russian Thistle (Russian thistle; 125 g ai/ha): 85; Plant response rating: Canarygrass (canarygrass; 16 g ai/ha): 65; Plant response rating: Canarygrass (canarygrass; 31 g ai/ha): 70; Plant response rating: Canarygrass (canarygrass; 62 g ai/ha): 75; Plant response rating: Canarygrass (canarygrass; 125 g ai/ha): 80
CCOc1nc(-c2ccccc2)nn1Cc1ccnc(C(F)(F)F)c1 [Compound 27]	98	100	90	98	25	65	75	85	98	100	25	30	90	95	50	50	98	98	75	80	Plant response rating: Russian Thistle (Russian thistle; 62 g ai/ha): 85; Plant response rating: Russian Thistle (Russian thistle; 125 g ai/ha): 85; Plant response rating: Canarygrass (canarygrass; 16 g ai/ha): 50; Plant response rating: Canarygrass (canarygrass; 31 g ai/ha): 65; Plant response rating: Canarygrass (canarygrass; 62 g ai/ha): 70; Plant response rating: Canarygrass (canarygrass; 125 g ai/ha): 60
Fc1ccc(-c2nc(OCC(F)(F)F)n(Cc3ccnc(C(F)(F)F)c3)n2)cc1 [Compound 30]	95	98	98	98	40	55	70	100	100	100	5	60	70	70	55	65	80	90	80	90	Plant response rating: Russian Thistle (Russian thistle; 62 g ai/ha): 90; Plant response rating: Russian Thistle (Russian thistle; 125 g ai/ha): 90; Plant response rating: Canarygrass (canarygrass; 16 g ai/ha): 55; Plant response rating: Canarygrass (canarygrass; 31 g ai/ha): 65; Plant response rating: Canarygrass (canarygrass; 62 g ai/ha): 75; Plant response rating: Canarygrass (canarygrass; 125 g ai/ha): 80
